Test [1] addresses T1, Peroxisome proliferator-activated receptor alpha (Homo sapiens) (UniProt Q07869).
T1 sequence (whole entry): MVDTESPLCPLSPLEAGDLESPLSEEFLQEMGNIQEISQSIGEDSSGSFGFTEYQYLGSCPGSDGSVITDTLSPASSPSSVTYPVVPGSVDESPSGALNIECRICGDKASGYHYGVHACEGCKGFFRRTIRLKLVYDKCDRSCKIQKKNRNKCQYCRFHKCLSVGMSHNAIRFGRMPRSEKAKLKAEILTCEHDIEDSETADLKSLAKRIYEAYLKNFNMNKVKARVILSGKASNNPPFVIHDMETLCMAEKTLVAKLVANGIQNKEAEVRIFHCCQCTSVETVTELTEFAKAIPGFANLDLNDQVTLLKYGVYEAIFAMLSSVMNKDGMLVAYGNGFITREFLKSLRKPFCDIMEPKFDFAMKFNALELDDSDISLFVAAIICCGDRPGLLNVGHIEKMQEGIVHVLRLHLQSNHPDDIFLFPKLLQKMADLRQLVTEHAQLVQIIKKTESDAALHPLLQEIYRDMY
The experiment in a line: Agonist activity at human PPARalpha-Gal4 in HEK293 cells by luciferase reporter assay relative to (S)-2-{2-[1-ethyl-3-(4-trifluoro-methoxyphenyl)ureido]indan-5-ylsulfanyl}-2-methylpropionic acid. The test is classed as functional, cell-based. Background: In a reporter assay the amount or activity of a reporter protein is the signal.

Test [2] has as its target T2, Glucocorticoid receptor (Homo sapiens) (UniProt P04150).
T2 sequence (whole entry): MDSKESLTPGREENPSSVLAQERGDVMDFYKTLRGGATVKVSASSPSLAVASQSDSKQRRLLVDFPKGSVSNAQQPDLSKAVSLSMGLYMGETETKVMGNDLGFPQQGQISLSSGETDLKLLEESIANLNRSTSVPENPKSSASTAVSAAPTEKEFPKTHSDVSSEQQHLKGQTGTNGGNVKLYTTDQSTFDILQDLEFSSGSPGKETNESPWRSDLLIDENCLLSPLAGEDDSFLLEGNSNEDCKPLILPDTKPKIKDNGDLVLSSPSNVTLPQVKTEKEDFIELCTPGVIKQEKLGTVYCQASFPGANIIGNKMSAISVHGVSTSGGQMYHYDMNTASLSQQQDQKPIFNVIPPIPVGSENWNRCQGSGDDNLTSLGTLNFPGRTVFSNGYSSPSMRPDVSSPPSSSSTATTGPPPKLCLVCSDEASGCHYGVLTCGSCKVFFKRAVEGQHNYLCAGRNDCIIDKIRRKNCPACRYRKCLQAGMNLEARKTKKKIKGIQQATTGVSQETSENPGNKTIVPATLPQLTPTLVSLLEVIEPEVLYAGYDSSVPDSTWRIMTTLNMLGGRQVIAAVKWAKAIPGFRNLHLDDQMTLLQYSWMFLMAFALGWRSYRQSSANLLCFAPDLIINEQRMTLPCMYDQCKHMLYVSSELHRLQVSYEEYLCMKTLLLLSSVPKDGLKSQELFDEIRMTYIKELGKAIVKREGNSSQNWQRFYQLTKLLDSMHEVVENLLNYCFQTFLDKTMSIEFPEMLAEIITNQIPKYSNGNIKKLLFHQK
The experiment in a line: Activity at glucocorticoid receptor.

Test [3] is described as follows: Activity at liver X receptor.
The nature of test [4]: Activity at retinoic acid receptor.
Test [5] has as its target T3, Bile acid receptor (Homo sapiens) (UniProt Q96RI1).
T3 sequence (whole entry): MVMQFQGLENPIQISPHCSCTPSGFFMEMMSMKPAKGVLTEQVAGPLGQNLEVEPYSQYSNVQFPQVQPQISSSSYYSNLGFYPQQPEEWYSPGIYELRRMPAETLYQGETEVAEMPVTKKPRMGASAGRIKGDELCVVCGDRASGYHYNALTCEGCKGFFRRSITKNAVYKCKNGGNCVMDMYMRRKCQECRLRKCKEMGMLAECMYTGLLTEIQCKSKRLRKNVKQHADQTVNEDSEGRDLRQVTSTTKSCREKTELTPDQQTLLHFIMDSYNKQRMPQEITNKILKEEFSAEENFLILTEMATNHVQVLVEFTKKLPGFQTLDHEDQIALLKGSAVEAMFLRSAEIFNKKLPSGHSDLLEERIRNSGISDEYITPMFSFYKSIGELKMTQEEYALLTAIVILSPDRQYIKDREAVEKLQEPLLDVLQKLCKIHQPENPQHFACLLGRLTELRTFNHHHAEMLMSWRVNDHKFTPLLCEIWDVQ
As to the kind of experiment: Activity at farnesoid X receptor.

The nature of test [6]: Activity at retinoic acid X receptor.
For test [7], the target named is T4, Peroxisome proliferator-activated receptor delta (Homo sapiens, UniProt Q03181).
T4 sequence (Q03181 whole entry): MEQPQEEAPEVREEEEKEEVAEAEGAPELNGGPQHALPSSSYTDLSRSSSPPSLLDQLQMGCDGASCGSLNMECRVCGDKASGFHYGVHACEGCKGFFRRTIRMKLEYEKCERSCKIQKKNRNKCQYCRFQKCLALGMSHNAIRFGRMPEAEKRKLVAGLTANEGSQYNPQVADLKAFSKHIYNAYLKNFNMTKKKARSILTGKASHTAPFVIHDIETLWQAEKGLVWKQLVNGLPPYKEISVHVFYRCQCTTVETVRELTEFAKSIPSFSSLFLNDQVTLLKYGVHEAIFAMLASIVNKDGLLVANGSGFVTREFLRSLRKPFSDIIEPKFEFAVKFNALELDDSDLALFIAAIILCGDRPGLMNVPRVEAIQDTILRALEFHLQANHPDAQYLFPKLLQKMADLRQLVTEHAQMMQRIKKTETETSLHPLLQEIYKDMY
The experiment in a line: Agonist activity at human PPARdelta-Gal4 in HEK293 cells by luciferase reporter assay. The test is classed as functional, cell-based.

The target in test [8] is T5, Peroxisome proliferator-activated receptor gamma (Homo sapiens, UniProt P37231).
T5 sequence (P37231 whole entry): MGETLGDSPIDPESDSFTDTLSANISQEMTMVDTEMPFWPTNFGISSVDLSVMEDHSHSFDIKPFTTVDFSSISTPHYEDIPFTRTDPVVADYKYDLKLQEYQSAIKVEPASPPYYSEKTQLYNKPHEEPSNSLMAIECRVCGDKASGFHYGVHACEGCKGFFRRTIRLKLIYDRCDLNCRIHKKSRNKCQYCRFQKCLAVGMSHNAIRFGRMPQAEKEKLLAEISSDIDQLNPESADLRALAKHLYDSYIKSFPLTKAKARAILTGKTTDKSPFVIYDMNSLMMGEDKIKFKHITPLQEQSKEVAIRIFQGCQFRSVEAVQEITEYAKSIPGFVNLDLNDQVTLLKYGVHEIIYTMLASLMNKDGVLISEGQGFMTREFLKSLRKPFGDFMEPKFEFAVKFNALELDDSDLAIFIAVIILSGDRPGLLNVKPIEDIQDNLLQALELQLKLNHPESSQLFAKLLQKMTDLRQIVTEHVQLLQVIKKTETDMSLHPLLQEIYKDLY
The experiment in a line: Agonist activity at human PPARgamma-Gal4 in HEK293 cells by luciferase reporter assay. The test is classed as functional, cell-based.

The target in test [9] is T6, Peroxisome proliferator-activated receptor alpha (Homo sapiens, UniProt Q07869).
T6 sequence (Q07869 whole entry): T1 sequence (whole entry)
The experiment in a line: Agonist activity at human PPARalpha-Gal4 in HEK293 cells by luciferase reporter assay. The test is classed as functional, cell-based.

Calls of active or inactive are those of the source. The calls are words filed in the database; no cut-off is given here.

One may read the EC50 as the concentration giving half of the maximal effect. The low end stands for greater potency, the high end for weaker potency.

`Cc1cc(SCc2nc(-c3ccc(OC(F)(F)F)cc3)ns2)ccc1OC1(C(=O)O)CCCC1`: in test [1], the Efficacy worked out at 31%. Still for that read-out and setting: the result for `Cc1cc(SCc2nsc(-c3ccc(OC(F)(F)F)cc3)n2)ccc1OC(C)(C)C(=O)O` reads 47%. Consider `Cc1cc(SCc2nc(-c3ccc(OC(F)(F)F)cc3)ns2)ccc1OC(C)(C)C(=O)O`, for which the outcome in test [2], in [3], in [4], in test [5] and in test [6] was inactive. The same compound yielded an Efficacy in test [1] of 44%. For `Cc1cc(SCCc2nc(-c3ccc(C(F)(F)F)cc3)ns2)ccc1OC(C)(C)C(=O)O`, the Efficacy in test [1] came out at 65%. The same measure, in the same setting: the same measure for `Cc1cc(SCc2nc(-c3ccc(Cl)cc3)ns2)ccc1OC(C)(C)C(=O)O`: 38%. In turn, `Cc1cc(SCCc2nc(-c3ccc(Cl)c(Cl)c3)ns2)ccc1OC(C)(C)C(=O)O` returned an Efficacy in test [1] of 71%. The half-maximal effective concentration (EC50) is 9 nM in test [7] and 815 nM in [8]. In turn, `Cc1cc(SCc2nc(-c3ccc(C(F)(F)F)c(F)c3)ns2)ccc1OC(C)(C)C(=O)O` had an Efficacy in test [1] of 53%. Further, it took 5 nM to reach a half-maximal effect in test [7] (EC50). `Cc1cc(SCc2nsc(-c3ccc(C(F)(F)F)cc3)n2)ccc1OC(C)(C)C(=O)O` came in with an Efficacy in [1] of 38%.

Consider `Cc1ccc(-c2nsc(CSc3ccc(OC(C)(C)C(=O)O)c(C)c3)n2)cc1C`, for which the Efficacy in [1] was determined as 45%. The compound also had an EC50 in test [8] above 3000 nM. In turn, `Cc1ccc(-c2nsc(CSc3ccc(OC(C)(C)C(=O)O)c(C)c3)n2)cc1Cl` registered an Efficacy in test [1] of 74%. The figures for the 50% effective concentration (EC50) in test [9] and in [7] were 70 nM and 25 nM, respectively. In [1], `Cc1ccc(-c2nsc(COc3ccc(OC(C)(C)C(=O)O)c(C)c3)n2)cc1C` yielded an Efficacy of 58%. Same read-out and setting: the result for `Cc1cc(OCc2nc(-c3ccc(OC(F)(F)F)c(Cl)c3)ns2)ccc1OC(C)(C)C(=O)O` reads 101%; that for `Cc1cc(OCc2nc(-c3ccc(OC(F)(F)F)cc3)ns2)ccc1OC(C)(C)C(=O)O`, 80%.

For `Cc1cc(OCc2nc(-c3ccc(C(F)(F)F)c(F)c3)ns2)ccc1OC(C)(C)C(=O)O`, the Efficacy in [1] came to 65%. In [9], this compound came in with an EC50 of 86 nM. For `CC(C)(Oc1ccc(SCc2nc(-c3ccc(C(F)(F)F)cc3)ns2)cc1)C(=O)O`, the 50% effective concentration (EC50) was 155 nM in test [9], 20 nM in test [7] and above 3000 nM in [8].

In turn, `Cc1ccc(-c2nsc(COc3ccc(OC(C)(C)C(=O)O)c(C)c3)n2)cc1Cl` came in with an Efficacy in [1] of 75%. The same measure, in the same setting: the result for `Cc1cc(SCc2cc(-c3ccc(C(F)(F)F)cc3)on2)ccc1OCC(=O)O` reads 41%. `Cc1cc(SCc2nc(-c3ccc(OC(F)(F)F)c(Cl)c3)ns2)ccc1OC(C)(C)C(=O)O` gave an Efficacy in [1] of 73%. This compound showed an EC50 in [7] of 3 nM. Take `Cc1cc(SCc2nc(-c3ccc(C(F)(F)F)cc3)ns2)ccc1OC(C)(C)C(=O)O`: the Efficacy in [1] worked out at 51%. With `Cc1cc(SCc2cc(-c3ccc(C(F)(F)F)cc3)ns2)ccc1OCC(=O)O`, in test [1], the Efficacy was determined as 43%. For the same compound, the EC50 in [9] amounted to 1290 nM.

Compound `Cc1cc(SCc2nc(-c3ccc(C(F)(F)F)cc3)ns2)ccc1OCC(=O)O` came in with an Efficacy in test [1] of 42%. Still for that read-out and setting: the same measure for `Cc1cc(OCc2nc(-c3ccc(Cl)c(Cl)c3)ns2)ccc1OC(C)(C)C(=O)O`: 83%; for `Cc1cc(OCc2nc(-c3ccc(C(F)(F)F)cc3)ns2)ccc1OC(C)(C)C(=O)O`: 71%.

Regarding `Cc1cc(SCc2cc(-c3ccc(C(F)(F)F)cc3)sn2)ccc1OCC(=O)O`, in test [1], the Efficacy was 43%. Same read-out and setting: the result for `Cc1cc(SCc2nc(-c3ccc(Cl)cc3Cl)ns2)ccc1OC(C)(C)C(=O)O` reads 33%.

For the origin of these results see ChEMBL document CHEMBL1143875, “Synthesis and structure-activity relationships of thiadiazole-derivatives as potent and orally active peroxisome proliferator-activated receptors alpha/delta dual agonists” (Bioorg Med Chem, 2008).
